Data from US9682126B2, “Postprandial gastrokinetic agent” (ZERIA PHARMACEUTICAL CO., LTD., priority 2013, dated 2017).

Legend:
Suncus murinus [1] = test: Postprandial gastric motility, force transducer on stomach, motility index MI (Example 1); type: in vivo; settings: motilin 300 ng/kg iv after 10-min feed intake
Procedure: Effects of administration of each of ghrelin and motilin and co-administration of ghrelin and motilin on postprandial gastric motility in Suncus murinus were studied. Each of Suncus motilin (Scrum Inc., Tokyo, Japan) and human ghrelin (Asubio Pharma Co., Ltd., Hyogo, Japan) was dissolved in phosphate buffered saline (PBS) containing 0.1% bovine serum albumin. Suncus murinus (male, outbred KAT strain, 8 to 9 weeks old, 73 to 90 g) was used for the experiment. Each animal was bred in a plastic cage provided with an empty can as a nest box under the following conditions: temperature at 23±2° C., illumination between 8:00 and 20:00, and free intake of commercial trout feed (SP, Nippon Formula Feed Mfg Co., Ltd., Yokohama, Japan). After 3 hours of fasting, Suncus murinus was anesthetized by an intraperitoneal injection of pentobarbital sodium (50 mg/kg). Through a midline incision, the stomach was exposed outside the body, and a force transducer was fixed via suture in the circular muscle direction of the body of stomach. […] Amplified analog signals were converted into digital signals by an analog-to-digital converter (ADC-20, Pico Technology Ltd, St Neots, UK), and the digital signals were recorded on a computer. […] Gastric motility was quantitated using a motility index (MI). A motility index (MI) based on a drug was calculated using the following equation. […]

Suncus murinus [2] = test: Gastric motility in postprandial period, sham-operated vs vagotomized (Example 2); type: in vivo
Procedure: Each of Suncus motilin (Scrum Inc., Tokyo, Japan) and human ghrelin (Asubio Pharma Co., Ltd., Hyogo, Japan) were dissolved in PBS containing 0.1% bovine serum albumin. Suncus murinus (male, outbred KAT strain, 7 to 15 weeks old, 60 to 100 g) was used for the experiment. Each animal was bred in a plastic cage provided with an empty can as a nest box under the following conditions: temperature at 23±2° C., illumination between 8:00 and 20:00, and free intake of commercial trout feed (SP, Nippon Formula Feed Mfg Co., Ltd., Yokohama, Japan). After 3 hours of fasting, Suncus murinus was anesthetized by an intraperitoneal injection of pentobarbital sodium (50 mg/kg). Through a midline incision, the stomach was exposed outside the body, and a force transducer was fixed via suture in the circular muscle direction of the body of stomach. The wire extending from the force transducer was inserted through the abdominal wall, passed under the skin, and exposed at the back of the neck. Thereafter, truncal vagotomy was performed. A lower portion of the esophagus was exposed, both branches of the vagus nerve were isolated, and about 3 mm of the vagus nerve was excised above the hepatic branch and the celiac branch. For sham-operated Suncus murinus, the vagus nerve was exposed, but not excised. An intravenous catheter was inserted in the right jugular, and extracorporeally fixed to the back. The catheter was filled with heparinized saline (100 units/mL) to prevent clotting. From 2 days after the operation, the gastric motility was recorded. 1 g of feed was given to the Suncus murinus during phase I to observe postprandial contractions. Motilin was continuously injected at 50 ng/kg/min over 10 minutes 20 minutes after completion of intake of feed. Amplified analog signals were converted into digital signals by an analog-to-digital converter (ADC-20, Pico Technology Ltd, St Neots, UK), and the digital signals were recorded on a computer. […] Gastric motility was quantitated using a motility index (MI). A motility index (MI) based on a drug was calculated using the following equation. […]

## CC[C@H](C)[C@H](NC(=O)[C@@H]1CCCN1C(=O)[C@@H](NC(=O)[C@@H](N)Cc1ccccc1)C(C)C)C(=O)N[C@@H](Cc1ccccc1)C(=O)N[C@H](C(=O)N[C@@H](Cc1ccc(O)cc1)C(=O)NCC(=O)N[C@@H](CCC(=O)O)C(=O)N[C@@H](CC(C)C)C(=O)N[C@@H](CCC(N)=O)C(=O)N[C@@H](CCCNC(=N)N)C(=O)N[C@@H](CCSC)C(=O)N[C@@H](CCC(N)=O)C(=O)N[C@@H](CCC(=O)O)C(=O)N[C@@H](CCCCN)C(=O)N[C@@H](CCC(=O)O)C(=O)N[C@@H](CCCNC(=N)N)C(=O)N[C@@H](CC(N)=O)C(=O)N[C@@H](CCCCN)C(=O)NCC(=O)N[C@@H](CCC(N)=O)C(=O)O)[C@@H](C)O [motilin]
Suncus murinus [1]
  contractions of the body of the stomach: did not induce contractions of the body of the stomach
Suncus murinus [2]; motilin 50 ng/kg/min after intake of feed
  MI of postprandial motilin-induced contractions, vagotomized compared with sham-operated: significantly higher
Suncus murinus [2]; sham-operated, after intake of feed, motilin 50 ng/kg/min, 10-minute administration
  phase III-like contractions: did not induce phase III-like contractions
Suncus murinus [2]; vagotomized, after intake of feed, motilin 50 ng/kg/min, 10-minute administration
  phase III contractions: induced strong phase III contractions
